Literature values in US20260232582A1, “PHARMACEUTICAL COMPOSITION OF ENSIFENTRINE WITH PHARMACEUTICALLY ACCEPTABLE PROPELLANTS” (CIPLA LIMITED, priority 2023, published 2026).

What was measured:
COPD patients = conditions: Phase 2; DPI and pMDI formulations
subjects = conditions: clinical trials involving more than 2,200 subjects

In the case of `COc1cc2c(cc1OC)-c1c/c(=N\c3c(C)cc(C)cc3C)n(CCNC(N)=O)c(=O)n1CC2` [Ensifentrine], the “Lung function in COPD patients” value (COPD patients) is given as “significant improvements in lung function”, the “Tolerability in clinical trials” value (subjects) is given as “well tolerated” and the “Primary endpoint (improvements in lung function)” value (COPD; nebulized, both ENHANCE-1 and ENHANCE-2 trials) is given as “met the primary endpoint”. For the same molecule, the “Rate and risk of COPD exacerbations” value (COPD; pooled analysis from ENHANCE-1 and ENHANCE-2) was “significantly reduced”.
